Laboratory results reported in patent US20030124023A1, “Method of sterilizing heart valves” (priority 2001, published 2003).

Assays:
physchem = experiment: physchem
Experimental: A. Preparation of Stabilizer Solutions:
The 0.5 M solution was not soluble; therefore an additional 2 ml of PPG was added.
An additional 1 ml PPG was added and further water bath sonicated.
The 0.5M solution was soluble after a 20-30 minute water bath sonication.
Very soluble after 10 minute water bath sonication.

[1] = test system: porcine AV heart valve cusps; experiment: Example 3: HPLC analysis of frozen gamma irradiated AV heart valve cusps; conditions: 30 kGy, 1.584 kGy/hr, −20° C.
Experimental: In this experiment, frozen porcine AV heart valves soaked in various solvents were gamma irradiated to a total dose of 30 kGy at 1.584 kGy/hr at −20° C. 5. Added 1.0 ml of the following to two of each of two tubes: dPBS, 50% DMSO and 50% DMSO with 200 mM sodium ascorbate (2M sodium ascorbate stock was diluted as follows: 400 μl (2M)+1.6 ml water+2ml 100% DMSO). 6. Incubated tubes at 4° C. with nutating for ˜46 hours. 8. All vials were frozen on dry ice. 9. Frozen samples were then irradiated at −20° C. at a rate of 1.584 kGy/hr to a total dose of 30 kGy.

[2] = test system: porcine heart valve cusps; experiment: Example 2: quantification of collagen crosslinks (pyd) by HPLC after gamma irradiation
Experimental: In this experiment, the effects of gamma irradiation were determined on porcine heart valve cusps in the presence of 50% DMSO and, optionally, a stabilizer, and in the presence of polypropylene glycol 400 (PPG400). 1.6 ml of a solution (stabilizer mixture or PPG400) was added to each sample and then the sample was incubated at 4° C. for 2.5 days. Valves and 1 ml of the solution in which they were incubated were then transferred into 2 ml irradiation vials. Each sample was irradiated with gamma irradiation at a rate of 1.723 kGy/hr at 3.6° C. to a total dose of 25 kGy. 3. Weighed the samples, transferred them to hydrolysis vials and then added 6 N HCl at a volume of 20 mg tissue/ml HCl: 5. Samples were hydrolyzed at 110° C. for approximately 23 hours. 13. Eluted crosslinks with 5 ml 2 N HCl into a low binding tube. 50 ml 2 N HCl:8.6 ml concentrated HCl adjusted to a volume of 50 ml with Nerl H2O. 1. Prepared 100-200 μl 1× solution in 1% heptafluorobutyric acid (HFBA). 2. Injected 50 μl on C18 HPLC column equilibrated with mobile phase. 3. Spectrofluorometer was set for excitation at 295 nm and emission at 395 nm. 4. Calculated the integrated fluorescence of Internal-Pyridinoline (Int-Pyd) per 1 μl of 1× solution of Int-Pyd.

[3] = Solubility of coumaric acid in DMSO/water (50% DMSO); assay type: physicochemical
Experimental: All stabilizers were prepared so that the final concentration of DMSO was 50%. Dissolve 34.7 mg in 106 μl DMSO, pH ≈3.0 138 μl H2O was added.

## CCCOC(=O)c1cc(O)c(O)c(O)c1 [n-Propyl Gallate]
physchem
  solubility of stabilizer stock in PPG: soluble

## C[S+](C)[O-] [DMSO, dimethylsulfoxide]
[1]; 20% DMSO
  HPLC profile, irradiated versus not irradiated: reproduced these peaks more faithfully
[1]; 50% DMSO
  HPLC profile, irradiated versus not irradiated: slightly more effective
[2]; 0 kGy (not irradiated)
  Area of Pyd Peak: 87880
[2]; 25 kGy, 1.723 kGy/hr, 3.6° C.
  Area of Pyd Peak: 49030
[2]; 25 kGy, 1.723 kGy/hr, 3.6° C., DMSO at 50%
  HPLC profile, irradiated versus not irradiated: less effective

## O=C(O)/C=C/c1ccc(O)cc1 [Coumaric Acid]
[3]; 34.7 mg in 106 μl DMSO, pH ≈3.0, 138 μl H2O added
  solubility in DMSO after addition of H2O: precipitated out of solution
[3]; pH adjusted to 7.5 with 1 N NaOH
  solubility in DMSO/H2O after pH adjustment: went back into solution
physchem
  solubility of stabilizer stock in PPG: not 100% soluble

## Cc1c(C)c2c(c(C)c1O)CCC(C)(C(=O)O)O2 (centres unmarked) [Trolox C, 6-hydroxy-2,5,7,8-tetramethylchroma-2 carboxylic acid]
physchem
  solubility of stabilizer stock in PPG: not soluble
physchem; 25 °C, organic solvent or mixture, thermodynamic from solid
  solubility: ≥ 125 mM
